{
  "source": "patent US20240277695A1",
  "about": "“FOXO INHIBITORS FOR USE IN THE TREATMENT OF DISEASES CAUSED BY ABNORMAL PROCESSING OF TDP-43 AND/OR FUS PROTEINS” (Administración General de la Comunidad Autónoma de Euskadi, priority 2020, published 2024)",
  "key": {"[1]": {"test_system": "Drosophila with motor neuron-specific (OK6 promoter) Tbph silencing", "assay": "Locomotor activity (climbing) assay in motor neuron-specific Tbph/Caz knockdown flies", "format": "in vivo, Drosophila melanogaster", "settings": "30 μM, 20 days-old flies", "source_text": "FIG. 9. FOXO1inh rescues (AS1842856) impaired climbing capacity induced by motor neuron-specific knockdown of ALS-causing ortholog genes in Drosophila melanogaster. Represented two different models of Tbph silence (silencing two different locus of Tbph gene) and one Caz (FUS ortholog) A) Locomotor activity of motor neuron specific (OK6 promoter) Tbph silencing Drosophila melanogaster using iTbph(p(KK08354)) plasmid. Generated genotypes; UAS-Dicer2-+-OK6-GAL4 (control) and UAS-Dicer2-iTbph^p(KK08354)-OK6-GAL4 (iTbph^p(KK08354)). B) Locomotor activity of motor neuron specific (OK6 promoter) Tbph silencing Drosophila melanogaster using iTbph(attP40) plasmid.; UAS-Dicer2-+-OK6-GAL4 (control) and UAS-Dicer2-iTbph^(attP40)-OK6-GAL4 (iTbph^(attP40)). C) Locomotor activity of motor neuron specific (OK6 promoter) Tbph silencing Drosophila melanogaster using iCaz plasmid.; UAS-Dicer2-+-OK6-GAL4 (control) and UAS-Dicer2-iCaz-OK6-GAL4 (iCaz). Assays were performed at 20 days-old flies and repeated 5 times each tube (5 flies/tube). Data are expressed as the percentage of flies passing for each group.\nTwo-way ANOVA was performed together Bonferroni post-hoc multiple comparison (*p<0.05; **p<0.01; ***p<0.001) or T-test for two groups comparisons (*p<0.05; **p<0.01; ***p<0.001). Values are expressed as mean+SD.\nOne of the most important features of ALS is motor neuron degeneration. […]"}, "[2]": {"test_system": "TDP-43 or FUS-silenced human immortalized myoblasts (cell line 8220)", "assay": "Metabolic flux analysis (ECAR/OCR) in TDP-43 or FUS-silenced myoblasts", "format": "cell-based", "settings": "30 nM", "source_text": "The translocation of TDP-43 to cytoplasm is involved in myoblast differentiation and myotube generation (see reference 14). […] Thus, given the potential implication of TDP-43 and FUS in myogenesis, we modelled the loss-of-function of these genes in the human immortalized myoblast cell line 8220 by treating these cells with shRNA-expressing lentiviral particles for TDP-43 or FUS, and further analyzed any change on cell morphology, growth and myogenic capacity (FIG. 1D).\nMolecular signaling factors and reprogramming of energy metabolism are considered crucial regulators of myogenesis during adult muscle regeneration. Since TDP-43 controls skeletal muscle glucose homeostasis, we wanted to investigate whether myogenic defects induced by loss of TDP-43, and in extension of FUS, may be mediated by abnormalities of glucose metabolism. Regarding the latest, various studies conducted in Drosophila, zebrafish and mouse myoblasts have highlighted glucose metabolism as part of the core myogenic program because of its ability to provide both the rapid source of energy and the building blocks (amino acids and nucleotides) that are required for biomass production during the formation of syncytial muscles. […]"}, "[3]": {"test_system": "control Drosophila strain UAS-Dicer2-+-Mef2-GAL4", "assay": "Climbing assay and lifespan of treated control flies", "format": "in vivo, Drosophila melanogaster", "settings": "30 μM", "source_text": "(§1) FIG. 7. Foxo inhibition improves muscle function and lifespan in Drosophila flies with muscle-conditioned deficiency of TDP-43 or FUS. […] F, Caz or Tbph-silenced flies have reduced survival times, as indicated by Kaplan-Meier curves (left panel) and median lifespan (right panel) (n=100 flies per group). […] This effect was particularly noticeable in iCaz and iTbph^attp40) fly lines (n=100 flies per group). *p<0.05: **p<0.01, ***p<0.001.\nAfter knowing that FoxO inhibition provides benefits to muscle cells in vitro, we wanted to further test the effects of targeting FoxO factors on muscle function under the context of TDP-43 or FUS loss-of-function in vivo. To that purpose, we generated various Drosophilamodels with muscle-conditioned silencing of either Cabeza (Caz) or Tbph genes, which are orthologs of human FUS or TARDBP, respectively. […] Drosophila has only one ortholog for mammalian FoxO factors, which is called foxo. Although the affinity of AS1842856 for Drosophila foxo has never been tested, the fact that FoxO DNA-binding sites, with which the inhibitor interacts, are well conserved among species, including Drosophila melanogaster (FIG. 7B) provides enough rationale to test its efficacy in Drosophila models."}, "[4]": {"test_system": "Caz or Tbph-silenced flies", "assay": "Longevity assay in flies with muscle-conditioned silencing of Caz or Tbph", "format": "in vivo, Drosophila melanogaster", "settings": "30 μM, particularly iCaz and iTbph^attp40", "source_text": "as §1\nWe performed longevity assays to further characterize these fly models. Either of the Caz or Tbph-silenced flies manifested dramatic reductions of survival times when compared to control group, as indicated by Kaplan-Meier curves and median lifespan (FIG. 7F). […] This effect was particularly noticeable in iCaz and iTbph^attp40 fly lines (FIG. 7G)."}},
  "note": "“Also recorded” adds a separate entry of the source.",
  "data": [
    {"compound": "CCn1cc(C(=O)O)c(=O)c2c(N)c(F)c(NC3CCCCC3)cc21", "note": "[AS1842856]", "values": [
      {"measurement": "locomotor impairments in climbing assay", "setting": "[1]", "value": "rescues; also recorded: fully rescue locomotor impairments"},
      {"measurement": "repressed glycolytic traits (glucose- and oligomycin-stimulated ECAR)", "setting": "[2]; proliferating myoblasts silenced for either TDP-43 or FUS", "value": "significant recovery"},
      {"measurement": "mitochondrial ATP production", "setting": "[2]; shTDP-43 and shFUS-treated myoblasts", "value": "enhanced mitochondrial ATP production; also recorded: improved the mitochondrial ATP production"},
      {"measurement": "toxicity on lifespan", "setting": "[3]", "value": "lack of toxicity"},
      {"measurement": "toxicity on motor function", "setting": "[3]", "value": "lack of toxicity"},
      {"measurement": "survival (Kaplan-Meier, median lifespan)", "setting": "[4]", "value": "higher survival rates"}
    ]}
  ]
}
